Measured values published in patent US20210307376A1, “Compositions Comprising Nicotine and/or Nicotine Salts and Ultrasonic Aerosolisation of Compositions Comprising Nicotine and/or Nicotine Salts” (priority 2020, published 2021).

How the values were obtained:
[1] = cited from earlier work; for P (octanol:water partitioning coefficient): [solute in octanol]:[solute in aqueous buffer]; for P (octanol:water partitioning coefficient) / % Aqueous: phosphate buffer; for P (octanol:water partitioning coefficient) / logP / % Aqueous: pH 7.4; for logP: octanol : aqueous phosphate buffer; for % Nonpolar: share of solute in octanol phase
[2] = P 0.69 versus P 0.00145
From the text: The partitioning coefficient can be used as a measure of lipid solubility.

[3] = test system: nicotinic receptors; conditions: inhaled; compared to other nicotine salts such as nicotine salicylate; cited from earlier work

Compound	P (octanol:water partitioning coefficient) [1]	logP [1]	% Aqueous [1]	% Nonpolar [1]	increase of partitioning coefficient P in comparison to levulinic acid [2]	increase in proportion of nicotine binding sites [3]
CC(=O)CCC(=O)O [Levulinic Acid]	0.00145	−2.84	99.85%	0.15%		
CN1CCCC1c1cccnc1 (centres unmarked) [Nicotine]	2.82	0.45	26%	74%		
Nicotine Levulinate	0.69	−0.16	59%	41%	500 fold	20-50%
